# Measurements: US4608373A, “Cephem compounds” (Yamanouchi Pharmaceutical Co., Ltd., priority 1982, dated 1986)
# Counter-ions that a name gives are not always drawn.
# What was measured:
# Assay type in all cases: cell-based
# Staph. aureus ATCC 6538P = assay: Antibacterial activity (MIC), Staph. aureus ATCC 6538P; conditions: Staphylococcus aureus, ATCC6538P, read-out: MIC (minimum effective inhibitory concentration)
# Excerpt: (§1) Antibacterial activities (minimum effective inhibitory concentrations) of the compounds of formula I are shown in the following table in comparison with those of cefatazidime having the structure [drawing 5] and cefmenoxime having the structure [drawing 6]
# Staph. aureus Smith = assay: Antibacterial activity (MIC), Staph. aureus Smith; conditions: Staphylococcus aureus, read-out: MIC (minimum effective inhibitory concentration)
# Excerpt: as §1
# Staph. aureus Terashima = assay: Antibacterial activity (MIC), Staph. aureus Terashima; conditions: Staphylococcus aureus, read-out: MIC (minimum effective inhibitory concentration)
# Excerpt: as §1
# E. coli Ebara = assay: Antibacterial activity (MIC), E. coli Ebara; conditions: Escherichia coli; E. coli Ebara; read-out: MIC (minimum effective inhibitory concentration)
# Excerpt: as §1
# [1] = test system: Kleb. pneumoniae ATCC 10031; assay: Antibacterial activity (MIC), Kleb. pneumoniae ATCC 10031; conditions: Klebsiella pneumoniae, ATCC10031, read-out: MIC (minimum effective inhibitory concentration)
# Excerpt: as §1
# Proteus morgani IID 602 = assay: Antibacterial activity (MIC), Proteus morgani IID 602; conditions: Proteus morgani IID 602; read-out: MIC (minimum effective inhibitory concentration)
# Excerpt: as §1
# Serr. marcescens IID 620 = assay: Antibacterial activity (MIC), Serr. marcescens IID 620; conditions: Serratia marcescens, IID620; Serr. marcescens IID 620; read-out: MIC (minimum effective inhibitory concentration)
# Excerpt: as §1
# [2] = test system: Ent. aerogenes ATCC 13048 (MS-1); assay: Antibacterial activity (MIC), Ent. aerogenes ATCC 13048 (MS-1); conditions: Klebsiella aerogenes, ATCC13048, read-out: MIC (minimum effective inhibitory concentration)
# Excerpt: as §1
# Ent. cloacae V-8 = assay: Antibacterial activity (MIC), Ent. cloacae V-8; conditions: Enterobacter cloacae, V8, read-out: MIC (minimum effective inhibitory concentration)
# Excerpt: as §1
# [3] = test system: Ps. aeruginosa NCTC 10490; assay: Antibacterial activity (MIC), Ps. aeruginosa NCTC 10490; conditions: Pseudomonas aeruginosa, NCTC10490, read-out: MIC (minimum effective inhibitory concentration)
# Excerpt: as §1
# Ps. aeruginosa IID 5142 = assay: Antibacterial activity (MIC), Ps. aeruginosa IID 5142; conditions: Pseudomonas aeruginosa, IID5142, read-out: MIC (minimum effective inhibitory concentration)
# Excerpt: as §1
Compound,MIC (Staph. aureus ATCC 6538P),MIC (Staph. aureus Smith),MIC (Staph. aureus Terashima),MIC (E. coli Ebara),MIC [1],MIC (Proteus morgani IID 602),MIC (Serr. marcescens IID 620),MIC [2],MIC (Ent. cloacae V-8),MIC [3],MIC (Ps. aeruginosa IID 5142)
"Nc1nc(CO/N=C(\C(=O)NC2C(=O)N3C(C(=O)[O-])=C(C[n+]4cccc(C(=O)O)c4)CSC23)c2csc(N)n2)cs1 (stereo not drawn) [Example 13, (Z)-7-{α-(2-amino-4-thiazolyl)-α-[(2-amino-4-thiazolyl)methoxyimino]acetamido}-3-(3-carboxylate-1-pyridiniomethyl)-3-cephem-4-carboxylatemono-sodium salt]",3.13 µg/mL,3.13 µg/mL,6.25 µg/mL,3.13 µg/mL,≤ 0.2 µg/mL,1.56 µg/mL,≤ 0.2 µg/mL,3.13 µg/mL,3.13 µg/mL,1.56 µg/mL,25 µg/mL
"CSC1=C(C(=O)O)N2C(=O)C(NC(=O)/C(=N\OCc3csc(N)n3)c3csc(N)n3)[C@H]2SC1 (stereo partly drawn) [3(b), (Z)-7-{α-(2-amino-4-thiazolyl)-α-[(2-amino-4-thiazolyl)methoxyimino]acetamido}-3-methylthio-3-cephem-4-carboxylic acid]",0.78 µg/mL,0.78 µg/mL,1.56 µg/mL,3.13 µg/mL,≤ 0.2 µg/mL,1.56 µg/mL,1.56 µg/mL,6.25 µg/mL,3.13 µg/mL,1.56 µg/mL,–
"Cn1nc(O)c(=O)nc1SCC1=C(C(=O)O)N2C(=O)C(NC(=O)/C(=N\OCc3csc(N)n3)c3csc(N)n3)[C@H]2SC1 (stereo partly drawn) [Example 5, (Z)-7-{α-(2-amino-4-thiazolyl)-α-[(2-amino-4-thiazolyl)methoxyimino]acetamido}-3-{[(2,5-dihydro-6-hydroxy-2-methyl-5-oxo-as-triazine-3-yl)thio]methyl}-3-cephem-4-carboxylic acid]",3.13 µg/mL,3.13 µg/mL,12.5 µg/mL,≤ 0.2 µg/mL,≤ 0.2 µg/mL,0.39 µg/mL,0.78 µg/mL,1.56 µg/mL,1.56 µg/mL,1.56 µg/mL,12.5 µg/mL
"Nc1nc(CO/N=C(\C(=O)NC2C(=O)N3C(C(=O)[O-])=C(C[n+]4ccccn4)CSC23)c2csc(N)n2)cs1 (stereo not drawn) [Example 7, (Z)-7-{α-(2-amino-4-thiazolyl)-α-[(2-amino-4-thiazolyl)methoxyimino]acetamido}-3-(1-pyridadiniomethyl)-3-cephem-4-carboxylate]",1.56 µg/mL,1.56 µg/mL,1.56 µg/mL,0.78 µg/mL,≤ 0.2 µg/mL,1.56 µg/mL,0.39 µg/mL,3.13 µg/mL,6.25 µg/mL,0.78 µg/mL,12.5 µg/mL
"Nc1nc(CO/N=C(\C(=O)NC2C(=O)N3C(C(=O)[O-])=C(C[n+]4ccc(C(=O)O)cc4)CSC23)c2csc(N)n2)cs1 (stereo not drawn) [Example 14, (Z)-7-{α-(2-amino-4-thiazolyl)-α-[(2-amino-4-thiazolyl)methoxyimino]acetamido}-3-(4-carboxylate-1-pyridiniomethyl)-3-cephem-4-carboxylatemono-sodium salt]",3.13 µg/mL,3.13 µg/mL,6.25 µg/mL,3.13 µg/mL,≤ 0.2 µg/mL,0.78 µg/mL,≤ 0.2 µg/mL,1.56 µg/mL,3.13 µg/mL,0.39 µg/mL,12.5 µg/mL
"Nc1ccc[n+](CC2=C(C(=O)[O-])N3C(=O)C(NC(=O)/C(=N\OCc4csc(N)n4)c4csc(N)n4)[C@H]3SC2)c1 (stereo partly drawn) [Example 19, (Z)-7-{α-(2-amino-4-thiazolyl)-α-[(2-amino-4-thiazolyl)methoxyimino]acetamido}-3-(3-amino-1-pyridiniomethyl)-3-cephem-4-carboxylate]",0.78 µg/mL,0.78 µg/mL,0.78 µg/mL,0.39 µg/mL,≤ 0.2 µg/mL,0.78 µg/mL,≤ 0.2 µg/mL,1.56 µg/mL,3.13 µg/mL,0.78 µg/mL,6.25 µg/mL
"Nc1nc(CO/N=C(\C(=O)NC2C(=O)N3C(C(=O)[O-])=C(C[n+]4cccc(NC=O)c4)CS[C@H]23)c2csc(N)n2)cs1 (stereo partly drawn) [Example 18, (Z)-7-{α-(2-amino-4-thiazolyl)-α-[(2-amino-4-thiazolyl)methoxyimino]acetamido}-3-(3-formamido-1-pyridiniomethyl)-3-cephem-4-carboxylate]",0.78 µg/mL,0.78 µg/mL,1.56 µg/mL,0.78 µg/mL,≤ 0.2 µg/mL,0.78 µg/mL,0.39 µg/mL,1.56 µg/mL,3.13 µg/mL,0.39 µg/mL,6.25 µg/mL
"Nc1nc(CON=C(C(=O)NC2C(=O)N3C(C(=O)[O-])=C(C[n+]4ccc(C(=O)NO)cc4)CS[C@H]23)c2csc(N)n2)cs1 (stereo partly drawn) [Example 23, (Z)-7-{α-(2-amino-4-thiazolyl)-α-[(2-amino-4-thiazolyl)methoxyimino]acetamido}-3-(4-hydroxycarbamoyl-1-pyridiniomethyl)-3-cephem-4-carboxylate]",3.13 µg/mL,6.25 µg/mL,3.13 µg/mL,0.39 µg/mL,≤ 0.2 µg/mL,0.78 µg/mL,0.39 µg/mL,1.56 µg/mL,3.13 µg/mL,0.39 µg/mL,6.25 µg/mL
"Nc1cc[n+](CC2=C(C(=O)[O-])N3C(=O)C(NC(=O)/C(=N\OCc4csc(N)n4)c4csc(N)n4)[C@H]3SC2)cc1 (stereo partly drawn) [Example 21, 7-{α-(2-amino-4-thiazolyl)-α-[(2-amino-4-thiazolyl)methoxyimino]acetamido}-3-(4-amino-1-pyridiniomethyl)-3-cephem-4-carboxylate]",0.39 µg/mL,0.39 µg/mL,0.39 µg/mL,≤ 0.2 µg/mL,≤ 0.2 µg/mL,0.39 µg/mL,≤ 0.2 µg/mL,0.78 µg/mL,1.56 µg/mL,0.39 µg/mL,6.25 µg/mL
"CO/N=C(\C(=O)N[C@@H]1C(=O)N2C(C(=O)O)=C(CSc3nnnn3C)CS[C@H]12)c1csc(N)n1 [CX, Cefmenoxime, reference compound]",3.13 µg/mL,6.25 µg/mL,12.5 µg/mL,0.2 µg/mL,≤ 0.2 µg/mL,≤ 0.2 µg/mL,0.2 µg/mL,–,3.13 µg/mL,1.56 µg/mL,100 µg/mL
"Nc1nc(CO/N=C(\C(=O)NC2C(=O)N3C(C(=O)[O-])=C(C[n+]4cccc(CNC=O)c4)CS[C@H]23)c2csc(N)n2)cs1 (stereo partly drawn) [Example 22, (Z)-7-{α-(2-amino-4-thiazolyl)-α-[(2-amino-4-thiazolyl)methoxyimino]acetamido}-3-(3-formamidomethyl-1-pyridiniomethyl)-3-cephem-4-carboxylate]",1.56 µg/mL,1.56 µg/mL,3.13 µg/mL,1.56 µg/mL,≤ 0.2 µg/mL,1.56 µg/mL,0.78 µg/mL,3.13 µg/mL,6.25 µg/mL,1.56 µg/mL,12.5 µg/mL
"CC1=C(C(=O)O)N2C(=O)C(NC(=O)/C(=N\OCc3csc(N)n3)c3csc(N)n3)[C@H]2SC1 (stereo partly drawn) [1(b), (Z)-7-{α-(2-amino-4-thiazolyl)-α-[(2-amino-4-thiazolyl)methoxyimino]acetamido}-3-methyl-3-cephem-4-carboxylic acid]",3.13 µg/mL,6.25 µg/mL,12.5 µg/mL,1.56 µg/mL,≤ 0.2 µg/mL,3.13 µg/mL,1.56 µg/mL,6.25 µg/mL,6.25 µg/mL,6.25 µg/mL,–
